In article PMC8686763, “Pre-Steady-State Kinetics of the SARS-CoV-2 Main Protease as a Powerful Tool for Antiviral Drug Discovery” (Frontiers in Pharmacology, 2021):
Read-outs that look alike come from different tables or passages of the source.

Tests used:
SARS-CoV-2 M^pro (WT) = SARS-CoV-2 M^pro (WT) (Severe acute respiratory syndrome coronavirus 2, UniProt P0DTD1); test: biochemical; type: binding; details: for ΔTm at 50 µM: read-out: ΔTm
WT M^pro = WT M^pro (Severe acute respiratory syndrome coronavirus 2, UniProt P0DTD1); type: binding
[1] = 5 μM M^pro, 50 μM inhibitor, vs DMSO control

SMILES | Tm (SARS-CoV-2 M^pro (WT)) | change of protein Tm upon binding (in words) (SARS-CoV-2 M^pro (WT)) | ΔTm at 50 µM (SARS-CoV-2 M^pro (WT); [1]) | K 2 (= k 2/k −2) (WT M^pro) | k 2 (WT M^pro) | k -2 (WT M^pro) | k chem (WT M^pro) | k 1 (WT M^pro; 25 °C) | k -1 (WT M^pro; 25 °C) | ΔTm at 50 µM (SARS-CoV-2 M^pro (WT)) | Tm (SARS-CoV-2 M^pro (WT); 5 μM M^pro, 50 μM inhibitor, DMSO control 56.25)
CC(C)(C)NC(=O)N[C@H](C(=O)N1C[C@H]2[C@@H]([C@H]1C(=O)NC(CC1CCC1)C(=O)C(N)=O)C2(C)C)C(C)(C)C (stereo partly drawn) [Boceprevir] | 62.00 °C | caused changes of protein Tm | 5.75 °C |  |  |  |  |  |  |  | 
COc1cccc2[nH]c(C(=O)N[C@@H](CC(C)C)C(=O)N[C@@H](C[C@@H]3CCNC3=O)C(=O)CO)cc12 [PF-00835231] | 70.25 °C | caused changes of protein Tm |  | 0.37 ± 0.07 | 0.90 ± 0.18 s⁻¹ | 2.4 ± 0.1 s⁻¹ | 0.17 ± 0.07 s⁻¹ | (0.35 ± 0.09)×10^6 M^−1×s^−1 | 12.4 ± 0.6 s⁻¹ | ~14 °C | 
CCC[C@H](NC(=O)[C@@H]1[C@H]2CCC[C@H]2CN1C(=O)[C@@H](NC(=O)[C@@H](NC(=O)c1cnccn1)C1CCCCC1)C(C)(C)C)C(=O)C(=O)NC1CC1 [Telaprevir] |  | did not result in Tm changes | 0 °C |  |  |  |  |  |  |  | 56.25 °C
